Assay results published in US20210221848A1, “POLYMYXIN DERIVATIVES AND THEIR USE IN COMBINATION THERAPY TOGETHER WITH DIFFERENT ANTIBIOTICS” (priority 2014, published 2021).
Where two headings read alike, the source gives them in different places.

Experiments:
[1] = test system: P. aeruginosa strains with elevated MICs to Polymyxin B; assay: MIC against strains with elevated MICs to Polymyxin B; assay type: cell-based, Pseudomonas aeruginosa; conditions: Table 6D; for MIC P. aeruginosa 065: strain 065, elevated MIC to Polymyxin B; for MIC P. aeruginosa 066: strain 066, elevated MIC to Polymyxin B; for MIC P. aeruginosa 067: strain 067, elevated MIC to Polymyxin B
Summary of the method: (§1)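 Polymyxin B-resistant isolates were inoculated from 0.5 McFarland suspensions of 18-24 hour Mueller-Hinton agar colonies. Testing was done twice per compound, and results disagreeing by over 2-fold were discarded as non-valid. For compounds assayed several times, the modal MIC is given.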

[2] = test system: E. coli strains with elevated MICs to Polymyxin B; assay: MIC against strains with elevated MICs to Polymyxin B; assay type: cell-based, Escherichia coli; conditions: Table 6D; for MIC E. coli 058: strain 058, elevated MIC to Polymyxin B; for MIC E. coli 059: strain 059, elevated MIC to Polymyxin B; for MIC E. coli 060: strain 060, elevated MIC to Polymyxin B; for MIC E. coli 061: strain 061, elevated MIC to Polymyxin B
Summary of the method: as §1

[3] = test system: A. baumanii strains with elevated MICs to Polymyxin B; assay: as above; assay type: cell-based, Acinetobacter baumannii; conditions: Table 6D; for MIC A. baumannii 053: strain 053, elevated MIC to Polymyxin B; for MIC A. baumannii 056: strain 056, elevated MIC to Polymyxin B; for MIC A. baumannii 068: strain 068, elevated MIC to Polymyxin B; for MIC A. baumannii 070: strain 070, elevated MIC to Polymyxin B
Summary of the method: as §1

[4] = test system: K. pneumoniae strains with elevated MICs to Polymyxin B; assay: MIC against strains with elevated MICs to Polymyxin B; assay type: cell-based, Klebsiella pneumoniae; conditions: Table 6D; for MIC K. pneumoniae 062: strain 062, elevated MIC to Polymyxin B; for MIC K. pneumoniae 063: strain 063, elevated MIC to Polymyxin B; for MIC K. pneumoniae 064: strain 064, elevated MIC to Polymyxin B; for MIC K. pneumoniae 655: strain 655, elevated MIC to Polymyxin B
Summary of the method: as §1

[5] = absence of a second agent, Table 6B

(S)-4-amino-2- ((2- trifluoromethyben- zyl)amino)butanoyl L-Thr-L-Dap- polymyxin B heptapeptide [Example D88]
MIC P. aeruginosa 065 [1]: 0.25 micrograms/mL
MIC P. aeruginosa 066 [1]: 1 micrograms/mL
MIC P. aeruginosa 067 [1]: >64 micrograms/mL
MIC, A. baumannii ATCC BAA-747 (A. baumannii; sole activity, Table 6C): 0.06 micrograms/mL
MIC, A. baumannii NCTC 13424 (A. baumannii; sole activity, Table 6C): 0.06 micrograms/mL
MIC E. coli 058 [2]: 2 micrograms/mL
MIC E. coli 059 [2]: 8 micrograms/mL
MIC E. coli 060 [2]: 4 micrograms/mL
MIC E. coli 061 [2]: 16 micrograms/mL
MIC A. baumannii 053 [3]: >64 micrograms/mL
MIC A. baumannii 056 [3]: 32 micrograms/mL
MIC A. baumannii 068 [3]: 8 micrograms/mL
MIC A. baumannii 070 [3]: 16 micrograms/mL
MIC, K. pneumoniae ATCC 4352 (K. pneumoniae; sole activity, Table 6C): 0.06 micrograms/mL
MIC, E. coli ATCC 25922 (E. coli; sole activity, Table 6C): 0.06 micrograms/mL
MIC, P. aeruginosa ATCC 27853 (P. aeruginosa; sole activity, Table 6C): 0.125 micrograms/mL
MIC, P. aeruginosa CCUG 59347 (P. aeruginosa; sole activity, Table 6C): 0.5 micrograms/mL
MIC K. pneumoniae 062 [4]: 32 micrograms/mL
MIC K. pneumoniae 063 [4]: 16 micrograms/mL
MIC K. pneumoniae 064 [4]: 1 micrograms/mL
MIC K. pneumoniae 655 [4]: 16 micrograms/mL

3-aminomethyl- undecanoyl L- Thr-L-Dap- polymyxin B heptapeptide [Example D91]
MIC P. aeruginosa 066 [1]: 2 micrograms/mL
MIC P. aeruginosa 067 [1]: 16 micrograms/mL
MIC, A. baumannii ATCC BAA-747 (A. baumannii; sole activity, Table 6C): 0.25 micrograms/mL
MIC, A. baumannii NCTC 13424 (A. baumannii; sole activity, Table 6C): 0.5 micrograms/mL
MIC E. coli 058 [2]: 1 micrograms/mL
MIC E. coli 059 [2]: 0.5 micrograms/mL
MIC E. coli 060 [2]: 2 micrograms/mL
MIC E. coli 061 [2]: 4 micrograms/mL
MIC A. baumannii 053 [3]: 8 micrograms/mL
MIC A. baumannii 056 [3]: 2 micrograms/mL
MIC A. baumannii 068 [3]: 2 micrograms/mL
MIC A. baumannii 070 [3]: 1 micrograms/mL
MIC, K. pneumoniae ATCC 4352 (K. pneumoniae; sole activity, Table 6C): 0.25 micrograms/mL
MIC, E. coli ATCC 25922 (E. coli; sole activity, Table 6C): 0.5 micrograms/mL
MIC, P. aeruginosa ATCC 27853 (P. aeruginosa; sole activity, Table 6C): 0.5 micrograms/mL
MIC, P. aeruginosa CCUG 59347 (P. aeruginosa; sole activity, Table 6C): 0.5 micrograms/mL
MIC K. pneumoniae 062 [4]: 8 micrograms/mL
MIC K. pneumoniae 063 [4]: 16 micrograms/mL
MIC K. pneumoniae 064 [4]: 4 micrograms/mL
MIC K. pneumoniae 655 [4]: 8 micrograms/mL

3-aminomethyl- undecanoyl polymyxin B nonapeptide [Example D33]
MIC P. aeruginosa 066 [1]: 4 micrograms/mL
MIC P. aeruginosa 067 [1]: 32 micrograms/mL
MIC, A. baumannii ATCC BAA-747 (A. baumannii; [5]): 1 micrograms/mL
MIC, A. baumannii NCTC 13424 (A. baumannii; [5]): 2 micrograms/mL
MIC E. coli 059 [2]: 2 micrograms/mL
MIC E. coli 060 [2]: 2 micrograms/mL
MIC E. coli 061 [2]: 8 micrograms/mL
MIC A. baumannii 053 [3]: 32 micrograms/mL
MIC A. baumannii 056 [3]: 16 micrograms/mL
MIC A. baumannii 068 [3]: 4 micrograms/mL
MIC A. baumannii 070 [3]: 4 micrograms/mL
MIC, K. pneumoniae ATCC 4352 (K. pneumoniae; [5]): 2 micrograms/mL
MIC, E. coli ATCC 25922 (E. coli; [5]): 1 micrograms/mL
MIC, E. coli NCTC 13441 (E. coli; [5]): 2 micrograms/mL
MIC, P. aeruginosa ATCC 27853 (P. aeruginosa; [5]): 0.5 micrograms/mL
MIC, P. aeruginosa CCUG 59347 (P. aeruginosa; [5]): 1 micrograms/mL
MIC K. pneumoniae 062 [4]: 2 micrograms/mL
MIC K. pneumoniae 063 [4]: 16 micrograms/mL
MIC K. pneumoniae 064 [4]: 2 micrograms/mL
MIC K. pneumoniae 655 [4]: 32 micrograms/mL

(cis-5-octylpiperidine)- 3-carbonyl polymyxin B nonapeptide [Example D21]
MIC P. aeruginosa 066 [1]: 2 micrograms/mL
MIC P. aeruginosa 067 [1]: 4 micrograms/mL
MIC, A. baumannii ATCC BAA-747 (A. baumannii; [5]): 0.5 micrograms/mL
MIC, A. baumannii NCTC 13424 (A. baumannii; [5]): 2 micrograms/mL
MIC E. coli 058 [2]: 1 micrograms/mL
MIC E. coli 059 [2]: 0.5 micrograms/mL
MIC E. coli 060 [2]: 1 micrograms/mL
MIC E. coli 061 [2]: 2 micrograms/mL
MIC A. baumannii 053 [3]: 8 micrograms/mL
MIC A. baumannii 056 [3]: 4 micrograms/mL
MIC A. baumannii 068 [3]: 1 micrograms/mL
MIC A. baumannii 070 [3]: 2 micrograms/mL
MIC, K. pneumoniae ATCC 4352 (K. pneumoniae; [5]): 0.25 micrograms/mL
MIC, K. pneumoniae ATCC BAA-2146 (K. pneumoniae; [5]): 1 micrograms/mL
MIC, E. coli ATCC 25922 (E. coli; [5]): 0.5 micrograms/mL
MIC, E. coli NCTC 13441 (E. coli; [5]): 0.5 micrograms/mL
MIC, P. aeruginosa ATCC 27853 (P. aeruginosa; [5]): 0.5 micrograms/mL
MIC, P. aeruginosa CCUG 59347 (P. aeruginosa; [5]): 0.5 micrograms/mL
MIC K. pneumoniae 062 [4]: 2 micrograms/mL
MIC K. pneumoniae 063 [4]: 32 micrograms/mL
MIC K. pneumoniae 064 [4]: 1 micrograms/mL
MIC K. pneumoniae 655 [4]: 32 micrograms/mL

(S)-3-amino-2- ((2- trifluoromethylben- zyl)amino)propa- noyl L-Thr-L- Dap-polymyxin B heptapeptide [Example D76]
MIC P. aeruginosa 065 [1]: 2 micrograms/mL
MIC P. aeruginosa 066 [1]: 2 micrograms/mL
MIC P. aeruginosa 067 [1]: 64 micrograms/mL
MIC, A. baumannii ATCC BAA-747 (A. baumannii; sole activity, Table 6C): 0.06 micrograms/mL
MIC, A. baumannii NCTC 13424 (A. baumannii; sole activity, Table 6C): 0.25 micrograms/mL
MIC E. coli 058 [2]: 4 micrograms/mL
MIC E. coli 059 [2]: 6 micrograms/mL
MIC E. coli 060 [2]: 2 micrograms/mL
MIC E. coli 061 [2]: 8 micrograms/mL
MIC A. baumannii 053 [3]: 64 micrograms/mL
MIC A. baumannii 056 [3]: 16 micrograms/mL
MIC A. baumannii 068 [3]: 8 micrograms/mL
MIC A. baumannii 070 [3]: 16 micrograms/mL
MIC, K. pneumoniae ATCC 4352 (K. pneumoniae; sole activity, Table 6C): 0.06 micrograms/mL
MIC, K. pneumoniae ATCC BAA-2146 (K. pneumoniae; sole activity, Table 6C): 0.125 micrograms/mL
MIC, E. coli ATCC 25922 (E. coli; sole activity, Table 6C): 0.125 micrograms/mL
MIC, E. coli NCTC 13441 (E. coli; sole activity, Table 6C): 0.25 micrograms/mL
MIC, P. aeruginosa ATCC 27853 (P. aeruginosa; sole activity, Table 6C): 0.25 micrograms/mL
MIC, P. aeruginosa CCUG 59347 (P. aeruginosa; sole activity, Table 6C): 0.25 micrograms/mL
MIC K. pneumoniae 062 [4]: 64 micrograms/mL
MIC K. pneumoniae 063 [4]: 16 micrograms/mL
MIC K. pneumoniae 064 [4]: 2 micrograms/mL
MIC K. pneumoniae 655 [4]: 16 micrograms/mL

(S)-1-isobutyl piperazine-2- carbonyl-L-Thr- L-Dap-polymyxin B heptapeptide [Example D69]
MIC P. aeruginosa 065 [1]: 16 micrograms/mL
MIC P. aeruginosa 066 [1]: 32 micrograms/mL
MIC P. aeruginosa 067 [1]: >256 micrograms/mL
MIC, A. baumannii ATCC BAA-747 (A. baumannii; sole activity, Table 6C): 0.25 micrograms/mL
MIC, A. baumannii NCTC 13424 (A. baumannii; sole activity, Table 6C): 0.5 micrograms/mL
MIC E. coli 058 [2]: 8 micrograms/mL
MIC E. coli 059 [2]: 16 micrograms/mL
MIC E. coli 060 [2]: 8 micrograms/mL
MIC E. coli 061 [2]: 32 micrograms/mL
MIC A. baumannii 053 [3]: >256 micrograms/mL
MIC A. baumannii 056 [3]: 256 micrograms/mL
MIC A. baumannii 068 [3]: 32 micrograms/mL
MIC, K. pneumoniae ATCC 4352 (K. pneumoniae; sole activity, Table 6C): 0.125 micrograms/mL
MIC, E. coli ATCC 25922 (E. coli; sole activity, Table 6C): 0.25 micrograms/mL
MIC, E. coli NCTC 13441 (E. coli; sole activity, Table 6C): 0.125 micrograms/mL
MIC, P. aeruginosa ATCC 27853 (P. aeruginosa; sole activity, Table 6C): 0.5 micrograms/mL
MIC, P. aeruginosa CCUG 59347 (P. aeruginosa; sole activity, Table 6C): 0.5 micrograms/mL
MIC K. pneumoniae 063 [4]: 128 micrograms/mL
MIC K. pneumoniae 064 [4]: 32 micrograms/mL

3-aminomethyl- undecanoyl polymyxin B nonapeptide [Example D32]
MIC P. aeruginosa 066 [1]: 4 micrograms/mL
MIC P. aeruginosa 067 [1]: 32 micrograms/mL
MIC, A. baumannii ATCC BAA-747 (A. baumannii; [5]): 2 micrograms/mL
MIC, A. baumannii NCTC 13424 (A. baumannii; [5]): 1 micrograms/mL
MIC E. coli 059 [2]: 1 micrograms/mL
MIC E. coli 060 [2]: 2 micrograms/mL
MIC E. coli 061 [2]: 8 micrograms/mL
MIC A. baumannii 053 [3]: 32 micrograms/mL
MIC A. baumannii 056 [3]: 8 micrograms/mL
MIC A. baumannii 068 [3]: 4 micrograms/mL
MIC A. baumannii 070 [3]: 8 micrograms/mL
MIC, K. pneumoniae ATCC 4352 (K. pneumoniae; [5]): 1 micrograms/mL
MIC, E. coli ATCC 25922 (E. coli; [5]): 1 micrograms/mL
MIC, E. coli NCTC 13441 (E. coli; [5]): 1 micrograms/mL
MIC, P. aeruginosa ATCC 27853 (P. aeruginosa; [5]): 0.5 micrograms/mL
MIC, P. aeruginosa CCUG 59347 (P. aeruginosa; [5]): 1 micrograms/mL
MIC K. pneumoniae 062 [4]: 8 micrograms/mL
MIC K. pneumoniae 063 [4]: 32 micrograms/mL
MIC K. pneumoniae 064 [4]: 2 micrograms/mL
MIC K. pneumoniae 655 [4]: 32 micrograms/mL
